{
  "source": "patent US20110143958A1",
  "about": "“Methods of Identifying Modulators of Ubiquitin Ligases” (priority 2008, published 2011)",
  "tested_on": "E3 ubiquitylation reaction (E1, E2, and E3)",
  "experiment": "E3 ligase assay using 5′-IAF-UBA1, inhibition assays",
  "assay_type": "biochemical, human",
  "conditions": "E1, E2, and E3 pre-incubated with various concentrations for 30 minutes at room temperature; detection with 5′-IAF-UBA1 and immunoblot; FIGS. 9A-D",
  "protocol": "E3 ligase reactions contained 10 nM GST-Praja1, 500 nM 6× His-SUMO-CARP2 or 500 nM 6× His-SUMO-MuRF1 as E3s, 50 nM E1, 150 nM UbcH5c (E2), 500 ng Ubiquitin, 2 mM ATP, 50 mM Tris-HCl pH8.0, 5 mM MgCl2, 0.1 mM DTT. For measuring SCF^Atrogin-1 E3 ligase activity, the reaction was assembled essentially as described above except that the E3 ligase contained 6× His-SUMO-Atrogin-1, Cullin-1 (“Cul1”), Roc-1 (“Rbx-1”) and 6× His-Skp1 (250 nM each). In order to obtain large amounts of the Cul1-Rbx1 complex for the SCF complex, we used a procedure to overexpress the Cul1-Rbx1 complex in E. coli. Zheng, et al., Nature, 416(6882):703-9 (2002). The Cul1 gene was split into two halves (residues 1-410 and residues 411-776) and co-expressed with GST-tagged Rbx1 as three different polypeptide chains. A PCR product encoding Skp1 was generated using the primers 5′-[…]-3′ (SEQ ID NO:28) and 5′-[…]-3′ (SEQ ID NO:29) and human Skp1 cDNA as the template. […]\nFor inhibition assays, reactions containing E1, E2, and E3 were pre-incubated with various concentrations of NEM and ubistatin A for 30 minutes at room temperature before initiating the reaction by adding ubiquitin and ATP. […] The wells were washed with 1× PBS and readings were taken using a fluorescence plate reader with excitation and emission wavelengths of 485 nm and 535 nm, respectively. […]",
  "data": [
    {"smiles": "O=C(Nc1ccc(/C=C/c2ccc(NC(=O)c3cc(S(=O)(=O)O)c4cccnc4c3O)cc2S(=O)(=O)O)c(S(=O)(=O)O)c1)c1cc(S(=O)(=O)O)c2cccnc2c1O", "note": "[Ubistatin A]", "values": [
      {"measurement": "inhibition of the E3 ubiquitylation assay", "value": "inhibited"}
    ]},
    {"smiles": "CCN1C(=O)C=CC1=O", "note": "[NEM]", "values": [
      {"measurement": "inhibition of the E3 ubiquitylation assay", "value": "inhibited"}
    ]}
  ]
}
